The values below come from US20060276465A1, “1,2-di(cyclic) substituted benzene compounds” (Eisai R&D Management Co., Ltd., priority 2003, published 2006).

Counter-ions that a name gives are not always drawn.

For experiment [1], the system named is human peripheral blood neutrophils. Put plainly: Human peripheral blood neutrophil adhesion system (adhesion to HUVEC immobilized plate, PMA-stimulated). Format: cell-based. As to conditions: concentration inhibiting by 50% the PMA-stimulated increase in neutrophils adhered to HUVEC. The text has this: As examples of the “C2-7 alkylcarbonyl” of Group W1 there may be mentioned the same ones listed above, among which C2-5 groups are preferred, and acetyl is particularly preferred.
As examples of the “C1-6 alkyl” for R^6X and R^7X there may be mentioned the same ones listed above.
As examples of the “halogen” of Group C1 there may be mentioned the same ones listed above, among which bromine, fluorine or chlorine is preferred.
As examples of the “C1-6 alkyl” of Group C1 there may be mentioned the same ones listed above, among which C1-4 groups are preferred, and methyl is particularly preferred.
As examples of the “C1-6 alkoxy” of Group C1 there may be mentioned the same ones listed above, among which C1-4 groups are preferred, and methoxy or ethoxy is particularly preferred.
As examples of the “halogen” of Group D1 and Group D2 (mentioned below) there may be mentioned the same ones listed above, among which fluorine or chlorine is preferred.
As examples of the “C1-6 alkoxy” of Group D1 and Group D2 (mentioned below) there may be mentioned the same ones listed above, among which C1-4 groups are preferred, and methoxy or ethoxy is particularly preferred.
The “C1-6 alkylthio” of Group D1 is a thio group having the aforementioned “C1-6 alkyl” bonded thereto, and as examples there may be mentioned straight-chain or branched-chain groups such as methylthio, ethylthio, propylthio, isopropylthio, […], isobutylthio, s-butylthio, t-butylthio, pentylthio, isopentylthio, 2-methylbutylthio, neopentylthio, 1-ethylpropylthio, hexylthio, isohexylthio, 4-methylpentylthio, 3-methylpentylthio, 2-methylpentylthio, 1-methylpentylthio, 3,3-dimethylbutylthio, 2,2-dimethylbutylthio, 1,1-dimethylbutylthio, 1,2-dimethylbutylthio, 1,3-dimethylbutylthio, 2,3-dimethylbutylthio, 1-ethylbutylthio or 2-ethylbutylthio, among which C1-4 groups are preferred, and methylthio or ethylthio is particularly preferred.
As examples of the “C1-6 alkylsulfonyl” of Group D1 there may be mentioned the same ones listed above, among which C1-4 groups are preferred, and methylsulfonyl or ethylsulfonyl is particularly preferred.
The “C1-6 alkylsulfinyl” of Group D1 is a sulfinyl group having the aforementioned “C1-6 alkyl” bonded thereto, as examples there may be mentioned straight-chain or branched-chain groups such as methylsulfinyl, ethylsulfinyl, propylsulfinyl, isopropylsulfinyl, […], isobutylsulfinyl, s-butylsulfinyl, t-butylsulfinyl, pentylsulfinyl, isopentylsulfinyl, 2-methylbutylsulfinyl, neopentylsulfinyl, 1-ethylpropylsulfinyl, hexylsulfinyl, isohexylsulfinyl, 4-methylpentylsulfinyl, 3-methylpentylsulfinyl, 2-methylpentylsulfinyl, 1-methylpentylsulfinyl, 3,3-dimethylbutylsulfinyl, 2,2-dimethylbutylsulfinyl, 1,1-dimethylbutylsulfinyl, 1,2-dimethylbutylsulfinyl, 1,3-dimethylbutylsulfinyl, 2,3-dimethylbutylsulfinyl, 1-ethylbutylsulfinyl or 2-ethylbutylsulfinyl, among which C1-4 groups are preferred, and methylsulfinyl or ethylsulfinyl is particularly preferred.

Experiment [2] has as its system colon-infiltrating neutrophils (myeloperoxidase enzyme activity). Description: Oxazolone-induced colon neutrophil infiltration model (colon myeloperoxidase activity). The following applies: myeloperoxidase enzyme activity inhibitory rate vs oxazolone control group; 30 mg/kg orally 30 minutes prior to intrarectal challenge; colon 4 hours after challenge; male Balb/c mice. Format: in vivo. From the text:
The “di(C1-6 alkyl)amino” of Group D1 may be either symmetric or asymmetric, and as examples there may be mentioned straight-chain or branched-chain groups such as dimethylamino, methylethylamino, diethylamino, methylpropylamino, ethylpropylamino, dipropylamino, diisopropylamino, dibutylamino, diisobutylamino, di(s-butyl)amino, di(t-butyl)amino, methylpentylamino, dipentylamino, diisopentylamino, di(2-methylbutyl)amino, di(neopentyl)amino, di(1-ethylpropyl)amino, dihexylamino, methylisohexylamino, diisohexylamino, di(4-methylpentyl)amino, di(3-methylpentyl)amino, di(2-methylpentyl)amino, di(1-methylpentyl)amino, di(3,3-dimethylbutyl)amino, di(2,2-dimethylbutyl)amino, di(1,1-dimethylbutyl)amino, di(1,2-dimethylbutyl)amino, di(1,3-dimethylbutyl)amino, di(2,3-dimethylbutyl)amino, di(1-ethylbutyl)amino or di(2-ethylbutyl)amino, among which dimethylamino, methylethylamino or diethylamino is preferred, and dimethylamino is particularly preferred.
The “C2-7 alkylcarbonylamino” of Group D1 is an amino group having the aforementioned “C2-7 alkylcarbonyl” bonded thereto, and as examples there may be mentioned straight-chain or branched-chain groups such as acetylamino, ethylcarbonylamino, n-propylcarbonylamino, isopropylcarbonylamino, n-butylcarbonylamino, isobutylcarbonylamino, s-butylcarbonylamino, t-butylcarbonylamino, pentylcarbonylamino, isopentylcarbonylamino, 2-methylbutylcarbonylamino, neopentylcarbonylamino, 1-ethylpropylcarbonylamino, hexylcarbonylamino, isohexylcarbonylamino, 4-methylpentylcarbonylamino, 3-methylpentylcarbonylamino, 2-methylpentylcarbonylamino, 1-methylpentylcarbonylamino, 3,3-dimethylbutylcarbonylamino, 2,2-dimethylbutylcarbonylamino, 1,1-dimethylbutylcarbonylamino, 1,2-dimethylbutylcarbonylamino, 1,3-dimethylbutylcarbonylamino, 2,3-dimethylbutylcarbonylamino, 1-ethylbutylcarbonylamino or 2-ethylbutylcarbonylamino, among which amino groups having C2-5 alkylcarbonyl bonded thereto are preferred, and acetylamino or ethylcarbonylamino is particularly preferred.
As examples of the “3- to 8-membered cycloalkyl” of the “3- to 8-membered cycloalkyl optionally substituted with a substituent selected from Group H1” of Group D1 and the “3- to 8-membered cycloalkyl” of Group D2 (mentioned below) there may be mentioned the same ones listed above, among which cyclopropyl, cyclobutyl, cyclopentyl or cyclohexyl is preferred, cyclopropyl or cyclobutyl is more preferred, and cyclopropyl is most preferred.
As exampled of the “C2-7 alkoxycarbonyl” of Group D1 there may be mentioned the same ones listed above, among which methoxycarbonyl or ethoxycarbonyl is preferred. […]

For a further experiment, the system named is Jurkat cells. Put plainly: Jurkat cell adhesion system (adhesion to immobilized human fibronectin, PMA-stimulated). Format: cell-based. As to conditions: concentration inhibiting by 50% the PMA-stimulated increase in adhered Jurkat cells on human fibronectin. From the text: The “C1-6 haloalkyl” of Group A1 and Group A2 (mentioned below) is aforementioned “C1-6 alkyl” having 1-6 aforementioned “halogen” bonded thereto, as examples there may be mentioned straight-chain or branched-chain alkyl groups such as methyl, ethyl, n-propyl, isopropyl, n-butyl, isobutyl, s-butyl, t-butyl, pentyl, isopentyl, 2-methylbutyl, neopentyl, 1-ethylpropyl, hexyl, isohexyl, 4-methylpentyl, 3-methylpentyl, 2-methylpentyl, 1-methylpentyl, 3,3-dimethylbutyl, 2,2-dimethylbutyl, 1,1-dimethylbutyl, 1,2-dimethylbutyl, 1,3-dimethylbutyl, 2,3-dimethylbutyl, 1-ethylbutyl or 2-ethylbutyl, having fluorine or chlorine bonded thereto, among which C1-4 alkyl having 1 to 3 fluorine or chlorine bonded thereto is preferred, and trifluoromethyl is particularly preferred.
As examples of the “C2-7 alkylene”, where C2-7 alkylene is permissible only in the case that a spiro union is formed together with the substituted 5- to 10-membered cycloalkyl or the substituted 5- to 10-membered cycloalkenyl, of Group A1 and Group A2 (mentioned below), there may be mentioned straight-chain or branched-chain groups such as 1,2-ethylene, trimethylene, propylene, ethylethylene, tetramethylene, pentamethylene, hexamethylene or heptamethylene, among which 1,2-ethylene, trimethylene, tetramethylene or pentamethylene is preferred, and 1,2-ethylene, tetramethylene or pentamethylene is particularly preferred.
As examples of the “halogen” of Group W1 there may be mentioned the same ones listed above, among which fluorine or chlorine is preferred.
As examples of the “C1-6 alkyl” of Group W1 there may be mentioned the same ones listed above, among which C1-4 groups are preferred, and methyl or ethyl is particularly preferred.
The “C2-7 alkoxyalkyl” of Group W1 is aforementioned “C1-6 alkyl” having the aforementioned “C1-6 alkoxy” bonded thereto, of 2 to 7 carbon (total number of carbon), and as examples there may be mentioned methoxymethyl, methoxyethyl, ethoxyethyl, methoxypropyl or propoxyethyl, among which methoxymethyl is preferred.
As examples of the “C1-6 alkoxy” of the “C1-6 alkoxy optionally substituted with a substituent selected from Group T1” of Group W1 there may be mentioned the same ones listed above, among which C1-4 groups are preferred, and methoxy, ethoxy, isopropoxy or propoxy is particularly preferred.

The IC50 is the midpoint of a concentration-inhibition curve. In the case of `CCCCN1CCN(c2c(NC3CCOCC3)cccc2C2=CCC(C(C)(C)C)CC2)CC1.Cl` (racemic) [Example 5, [3-(4-t-Butylcyclohex-1-enyl)-2-(4-butylpiperazin-1-yl)phenyl](tetrahydropyran-4-yl)amine hydrochloride], the IC50 came out at 11 µM in experiment [1] and 2.9 µM with Jurkat cells. Further, the “Ihibitory Rate (%)” value in experiment [2] came to 3.0%.

As to `CCCCN1CCN(c2cc3c(cc2C2CCC(C(C)(C)C)CC2)N(C)C(=O)CO3)CC1` (stereo not shown) [Example 6, 6-(4-t-Butylcyclohexyl)-7-(4-butylpiperazin-1-yl)-4-methyl-4H-benzo[1,4]oxazin-3-one], the IC50 in experiment [1] came out at 11.7 µM; in the experiment with Jurkat cells, 2.9 µM. In addition, in experiment [2], the “Ihibitory Rate (%)” value amounted to 48.0%.

In the case of `CCCCN1CCN(c2cc3c(cc2C2CCC(C(C)(C)C)CC2)N(C)CCO3)CC1.Cl` (stereo not shown) [Example 7, 6-(4-t-Butylcyclohexyl)-7-(4-butylpiperazin-1-yl)-4-methyl-3,4-dihydro-2H-benzo[1,4]oxazine hydrochloride], the IC50 was 17.4 µM in experiment [1] and 4.9 µM in the experiment on Jurkat cells. In experiment [2], the “Ihibitory Rate (%)” value amounted to 24.0%.

Take `CCCCN1CCN(c2cc3c(cc2C2CC(C)(C)CC(C)(C)C2)OCO3)CC1` [Example 14, 1-Butyl-4-[6-(3,3,5,5-tetramethylcyclohexyl)benzo[1,3]dioxol-5-yl]piperazine hydrochloride]: the concentration for half-maximal inhibition (IC50) in experiment [1] turned out to be 22.4 µM; in the experiment on Jurkat cells, 7.1 µM.

With `CCCCN1CCN(c2cc3c(cc2C2CC(C)(C)CC(C)(C)C2)OCCO3)CC1` [Example 15, 1-Butyl-4-[7-(3,3,55-tetramethylcyclohexyl)-2,3-dihydrobenzo[1,4]dioxin-6-yl]piperazine hydrochloride], the figures for the IC50 (in experiment [1]; with Jurkat cells) were 11.8 µM and 4.7 µM, respectively.

Regarding `CCCCN1CCN(c2ccc(N3CCC4(CC3)OCCO4)cc2C2CCC(C(C)(C)C)CC2)CC1.Cl` (stereo not shown) [Example 134, 8-{3-(4-t-Butylcyclohexyl)-4-(4-butylpiperazin-1-ylphenyl}-1,4-dioxa-8-aza-spiro [4.5]decane hydrochloride], the IC50 was 6 µM in experiment [1] and 4 µM with Jurkat cells.

As to `CCCCN1CCN(c2ccc(N3CCC4(CC3)OCCO4)cc2C2CCC(C(C)(C)C)CC2)CC1.Cl` (stereo not shown) [Example 134], the “Ihibitory Rate (%)” value in experiment [2] was found to be 18.0%.
